Assay results taken from patent publication US12421489B2, “Biological control of plant pathogenic microorganisms” (priority 2016, dated 2025).

Test system: Monilinia fructicola
Test: Cherry inoculation assays 1 and 3: Monilinia fruit rot of ‘Sweet Valentine’ cherries, dip treatment
Assay type: in vivo
Details: Assay 1, cherries, cumulative after 13 days; Nil 50%; reductions not significant
Method: Fruit-based screening assays were conducted in laboratories at the Plant and Food Research Ruakura Research Centre, Hamilton, New Zealand (PFR). PFR assays focused on dip treatment application of YBCA5 and fungicide controls.
Fruit for Monilinia fructicola and Botrytis spp. inoculation assays were carried out on sweet cherries (Prunus avium ‘Sweet Valentine’) that were picked at the harvest mature stage and sourced from the PFR Clyde Research Orchard in Central Otago on 8 Jan. 2016 for fruit based assays 1 and 2. A second harvest was carried out on 13 Jan. 2016 for fruit based assays 3 and 4.
Each cherry was then subjected to a double wash process. Wash one consisted of 10 minutes in tap water on a rotary shaker (110 rpm) followed by a five minute wash in SDW (Wash 2). […]
A Monilinia fructicola culture (isolate code MFGQ3), which had been originally isolated from an infected peach tree located in the Hamilton region during 1998, was used for the spray inoculation assays included in this section (Ruakura based assay). […] This stock suspension was then filtered using a 70 μm cell strainer (to remove mycelial fragments), the concentration determined using a haemocytometer and then adjusted, by dilution with SDW+Tw 80 (0.05%) to a final concentration of 1×10^4 conidia/mL. […]

## CC(C)NC(=O)N1CC(=O)N(c2cc(Cl)cc(Cl)c2)C1=O [iprodione]
  incidence of Monilinia fruit rot: 22%
